This is an account of results in publication PMC4286809, “Crystallographic and spectroscopic snapshots reveal a dehydrogenase in action” (Nature Communications, 2015).

One may read the Km as the substrate concentration at which the rate is half of its maximum. As usually defined, the stoichiometry N is the number of molecules, sites or subunits per partner or assembly.

Data set [1] has as its target T1, 2-aminomuconate-6-semialdehyde dehydrogenase (AMSDH) (Pseudomonas fluorescens, UniProt Q83V33, R464A).
T1 construct: gene nbaE
Kind of data set: steady-state kinetics; substrate inhibition Ki (Km […]). The class given is biochemical.

For data set [2], the target named is T2, 2-aminomuconate-6-semialdehyde dehydrogenase (AMSDH) (Pseudomonas fluorescens, UniProt Q83V33, R120A).
T2 construct: gene nbaE
T2 sequence (Q83V33 1-500 R120A): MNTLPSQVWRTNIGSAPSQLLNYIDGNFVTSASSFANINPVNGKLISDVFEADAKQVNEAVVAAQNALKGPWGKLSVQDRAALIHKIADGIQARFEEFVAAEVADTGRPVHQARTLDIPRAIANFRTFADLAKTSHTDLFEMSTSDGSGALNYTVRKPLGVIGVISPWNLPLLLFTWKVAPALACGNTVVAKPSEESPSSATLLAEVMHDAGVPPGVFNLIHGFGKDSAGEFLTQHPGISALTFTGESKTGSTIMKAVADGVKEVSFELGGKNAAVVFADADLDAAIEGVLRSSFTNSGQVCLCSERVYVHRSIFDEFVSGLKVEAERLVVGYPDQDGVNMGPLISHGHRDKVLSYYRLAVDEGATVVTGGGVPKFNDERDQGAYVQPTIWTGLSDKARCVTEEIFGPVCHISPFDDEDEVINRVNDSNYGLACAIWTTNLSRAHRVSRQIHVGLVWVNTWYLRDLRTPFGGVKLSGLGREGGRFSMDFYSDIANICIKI
Kind of data set: steady-state kinetics (Km, lower bound). The class given is biochemical.

The target of data set [3] is T3, 2-aminomuconate-6-semialdehyde dehydrogenase (AMSDH) (Pseudomonas fluorescens, UniProt Q83V33, E268A).
T3 construct: gene nbaE
T3 sequence (Q83V33 1-500 E268A): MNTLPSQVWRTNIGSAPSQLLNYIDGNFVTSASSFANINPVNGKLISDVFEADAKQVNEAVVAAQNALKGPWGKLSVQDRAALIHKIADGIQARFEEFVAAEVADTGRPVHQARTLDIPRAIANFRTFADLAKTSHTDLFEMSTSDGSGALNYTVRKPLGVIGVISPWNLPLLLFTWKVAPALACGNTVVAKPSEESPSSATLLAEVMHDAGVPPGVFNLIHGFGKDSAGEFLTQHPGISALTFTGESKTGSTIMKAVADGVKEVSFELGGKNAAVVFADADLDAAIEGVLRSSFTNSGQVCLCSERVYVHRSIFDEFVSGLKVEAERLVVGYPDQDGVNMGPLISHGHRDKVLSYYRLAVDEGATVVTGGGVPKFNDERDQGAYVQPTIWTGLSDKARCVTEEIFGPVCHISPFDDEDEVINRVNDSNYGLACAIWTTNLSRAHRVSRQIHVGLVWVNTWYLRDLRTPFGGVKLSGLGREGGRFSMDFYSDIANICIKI
Kind of data set: crystal structures of thiohemiacetal (4OU2) and thioacyl (4OUB) adducts; ESI mass spectrometry; absorption titration. The class given is binding.

Data set [4] concerns the target T4, 2-aminomuconate-6-semialdehyde dehydrogenase (AMSDH) (Pseudomonas fluorescens, UniProt Q83V33).
T4 construct: gene nbaE
T4 sequence (Q83V33 1-500): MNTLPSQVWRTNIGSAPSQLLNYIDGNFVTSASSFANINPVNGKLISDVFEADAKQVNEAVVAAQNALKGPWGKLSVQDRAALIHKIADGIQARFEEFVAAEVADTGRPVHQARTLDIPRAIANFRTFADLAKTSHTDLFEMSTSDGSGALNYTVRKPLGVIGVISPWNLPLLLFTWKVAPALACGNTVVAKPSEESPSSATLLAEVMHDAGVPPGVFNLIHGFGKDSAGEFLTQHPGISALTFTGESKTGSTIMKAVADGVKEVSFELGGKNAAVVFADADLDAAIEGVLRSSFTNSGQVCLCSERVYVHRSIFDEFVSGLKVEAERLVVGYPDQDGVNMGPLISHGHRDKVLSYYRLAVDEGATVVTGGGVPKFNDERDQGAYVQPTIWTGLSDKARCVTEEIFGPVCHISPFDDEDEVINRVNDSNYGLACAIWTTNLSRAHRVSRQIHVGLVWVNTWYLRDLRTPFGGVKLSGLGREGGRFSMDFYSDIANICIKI
Kind of data set: crystal structure of co-crystallized binary complex ([…] Å). The class given is binding.

Data set [5] deals with the molecule itself. Put plainly: crystal structure; wild-type AMSDH, ligand-free, with NAD+, with NAD+ and 2-AMS or 2-HMS, and as thioacyl intermediate; space group P212121; four polypeptides per asymmetric unit.
Substrate in the data set “purified protein”: O=C/C=C/C=C(/O)C(=O)O
Kind of data set: purified protein. The following applies: NAD+ active site; bifurcated hydrogen bonds with Arg120 and Arg464; C6 becomes covalently bound to Cys302 in the later thioacyl intermediate (4NPI). The class given is biochemical, Pseudomonas fluorescens.

With `O=C/C=C/C=C(/O)C(=O)O` [2-HMS, 2-hydroxymuconate-6-semialdehyde], the Ki in data set [1] was ~6 µM. Besides, the Km in data set [2] was > 446 µM. Moreover, in data set [3], the “crystal structures of thiohemiacetal (4OU2) and thioacyl (4OUB) adducts; ESI mas” value was “a continuous electron density between Cys302-SG and 2-HMS-C6 is observed”.
Take `NC(=O)c1ccc[n+]([C@@H]2O[C@H](COP(=O)([O-])OP(=O)(O)OC[C@H]3O[C@@H](n4cnc5c(N)ncnc54)[C@H](O)[C@@H]3O)[C@@H](O)[C@H]2O)c1` [NAD+, NAD^+]: the “crystal structure of co-crystallized binary complex (2.00 Å)” value in data set [4] is given as “an NAD^+ molecule is present in an extended, anti-conformation in the amino-terminal, co-substrate-binding domain of each monomer”.

B1: 2-aminomuconate-6-semialdehyde dehydrogenase from Pseudomonas fluorescens, wild type (enzyme, UniProt Q83V33 1-500, looked up)
chain: MNTLPSQVWRTNIGSAPSQLLNYIDGNFVTSASSFANINPVNGKLISDVFEADAKQVNEAVVAAQNALKGPWGKLSVQDRAALIHKIADGIQARFEEFVAAEVADTGRPVHQARTLDIPRAIANFRTFADLAKTSHTDLFEMSTSDGSGALNYTVRKPLGVIGVISPWNLPLLLFTWKVAPALACGNTVVAKPSEESPSSATLLAEVMHDAGVPPGVFNLIHGFGKDSAGEFLTQHPGISALTFTGESKTGSTIMKAVADGVKEVSFELGGKNAAVVFADADLDAAIEGVLRSSFTNSGQVCLCSERVYVHRSIFDEFVSGLKVEAERLVVGYPDQDGVNMGPLISHGHRDKVLSYYRLAVDEGATVVTGGGVPKFNDERDQGAYVQPTIWTGLSDKARCVTEEIFGPVCHISPFDDEDEVINRVNDSNYGLACAIWTTNLSRAHRVSRQIHVGLVWVNTWYLRDLRTPFGGVKLSGLGREGGRFSMDFYSDIANICIKI
notes: 2-aminomuconate-6-semialdehyde dehydrogenase (AMSDH), Pseudomonas fluorescens; also called AMSDH; wild-type AMSDH; source: E. coli overexpression system, purified
In the case of B1, in data set [5], the “stoichiometry N” value is 4. Also, in the data set “purified protein”, the Km amounted to 10.4 ± 0.2 µM.
